Measured values published in article PMC6514978, “Synthesis, Antibacterial Activities, Mode of Action and Acute Toxicity Studies of New Oxazolidinone-Fluoroquinolone Hybrids” (Molecules, 2019).
Converted amounts (≈) assume the structure as drawn.

What was measured:
[1] = tested on: S. pneumoniae (13) clinical isolates; test: Susceptibility of clinical isolates (MIC); format: cell-based, Streptococcus pneumoniae; details: for Cumulative % of strains inhibited at MIC / No. of strains inhibited at MIC: S. pneumoniae (13)
How it was run: (§1)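 Broth microdilution per CLSI in cation-adjusted Mueller Hinton broth, Haemophilus Test Medium, or cation-adjusted MHB with 3%–5% lysed horse blood, as suited to each organism. Final inoculum 5 × 10^5 CFU/mL; plates read after 16–24 h at 35 °C. ATCC QC strains included; triplicate determinations.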

[2] = tested on: S. suis (9) clinical isolates; test: Susceptibility of clinical isolates (MIC); format: cell-based, Streptococcus suis; details: for Cumulative % of strains inhibited at MIC / No. of strains inhibited at MIC: S. suis (9)
How it was run: as §1

[3] = tested on: LZD and quinolone-resistant E. faecium; test: MIC against drug-resistant strain; format: cell-based; details: Enterococcus faecium; E. faecium, LZD and quinolone-resistant; read-out: MIC
How it was run: as §1

[4] = tested on: MRSA; test: MIC against drug-resistant strain; format: cell-based; details: Staphylococcus aureus, read-out: MIC
How it was run: as §1

[5] = tested on: CIP-resistant S. aureus; test: MIC against drug-resistant strain; format: cell-based; details: Staphylococcus aureus; S. aureus, CIP-resistant; read-out: MIC
How it was run: as §1

[6] = tested on: VAN and quinolone-resistant S. pneumoniae; test: MIC against drug-resistant strain; format: cell-based; details: Streptococcus pneumoniae; S. pneumoniae, VAN and quinolone-resistant; read-out: MIC
How it was run: as §1

[7] = tested on: CIP-resistant S. haemolyticus; test: MIC against drug-resistant strain; format: cell-based; details: Staphylococcus haemolyticus; S. haemolyticus, CIP-resistant; read-out: MIC
How it was run: as §1

[8] = tested on: VAN and quinolone-resistant E. faecium; test: MIC against drug-resistant strain; format: cell-based; details: Enterococcus faecium; E. faecium, VAN and quinolone-resistant; read-out: MIC
How it was run: as §1

[9] = tested on: E. faecalis (72) clinical isolates; test: Susceptibility of clinical isolates (MIC); format: cell-based, Enterococcus faecalis; details: for Cumulative % of strains inhibited at MIC / No. of strains inhibited at MIC: E. faecalis (72)
How it was run: as §1

[10] = tested on: E. coli (ATCC25922); test: MIC, broth microdilution (CLSI), standard strain; format: cell-based; details: Escherichia coli; E. coli (ATCC25922); read-out: MIC
Source text: (§2) 6 standard strains and 3 clinical isolates were used to the preliminary evaluation of in vitro antibacterial activities of oxazolidinone-fluoroquinolone hybrids. For the further evaluation of hybrids OBP-4 and OBP-5, 263 clinical isolates including S. aureus (46), S. haemolyticus(32), S. epidermidis (10), E. faecalis (72), E. faecium (47), S. pneumoniae (13), H. parasuis (34), S. suis (9), and 8 resistant strains including MRSA, MRSE, CIP-resistant S. aureus and S. haemolyticus, VAN and quinolone-resistant S. pneumoniae, LZD-resistant E. faecalis, LZD/VAN and quinolone-resistant E. faecium were collected and tested.
(§3) Susceptibility testing of oxazolidinone-fluoroquinolone hybrids against various bacteria was performed by the broth microdilution method as outlined by the Clinical and Laboratory Standards Institute (CLSI). Three types of media, including cation-adjusted Mueller Hinton broth, Haemophilus Test Medium and cation-adjusted Mueller Hinton broth that contained 3%–5% lysed horse blood, were used to culture the corresponding bacteria. All compounds including comparator drugs were dissolved in an appropriate solvent at a concentration of 2.048 mg/mL and then serially diluted two-fold to provide the required concentrations. A final inoculum of 5 × 10^5 CFU/mL was used and plates were read after incubation for 16–24 h at 35 °C. […] Standard quality control strains (ATCC) were included throughout. Each determination was repeated in triplicate.

[11] = tested on: P. Aeruginosa (ATCC27853); test: MIC, broth microdilution (CLSI), standard strain; format: cell-based; details: Pseudomonas aeruginosa; P. Aeruginosa (ATCC27853); read-out: MIC
Source text: as §2, §3

[12] = tested on: H. influenzae (ATCC49247); test: MIC, broth microdilution (CLSI), standard strain; format: cell-based; details: Haemophilus influenzae
Source text: as §2, §3

[13] = tested on: E. faecalis (ATCC29212); test: MIC, broth microdilution (CLSI), standard strain; format: cell-based; details: Enterococcus faecalis; E. faecalis (ATCC29212); read-out: MIC
Source text: as §2, §3

[14] = tested on: S. aureus (ATCC29213); test: MIC, broth microdilution (CLSI), standard strain; format: cell-based; details: Staphylococcus aureus
Source text: as §2, §3

[15] = tested on: MRSA (13B262); test: MIC, broth microdilution (CLSI), clinical isolate; format: cell-based; details: Staphylococcus aureus
Source text: as §2, §3

[16] = tested on: S. agalactiae^R (13B317), levofloxacin-resistant S. agalactiae; test: MIC, broth microdilution (CLSI), clinical isolate; format: cell-based; details: Streptococcus agalactiae; levofloxacin-resistant S. agalactiae (13B317)
Source text: as §2, §3

[17] = tested on: S. epidermidis (10) clinical isolates; test: Susceptibility of clinical isolates (MIC); format: cell-based, Staphylococcus epidermidis
How it was run: as §1

[18] = tested on: S. aureus (46) clinical isolates; test: Susceptibility of clinical isolates (MIC); format: cell-based, Staphylococcus aureus; details: for Cumulative % of strains inhibited at MIC / No. of strains inhibited at MIC: S. aureus (46)
How it was run: as §1

[19] = tested on: S. haemolyticus (32) clinical isolates; test: Susceptibility of clinical isolates (MIC); format: cell-based, Staphylococcus haemolyticus
How it was run: as §1

[20] = Enterococcus faecalis, E. faecalis, 72 clinical isolates
[21] = S. haemolyticus (32), MIC 0.125 µg/mL

CC1Sc2c(C(=O)O)c(=O)c3cc(F)c(N4CCC(O)(COc5ccc(N6C[C@H](CO)OC6=O)cc5F)CC4)cc3n21 (stereo partly shown) [OBP-5] was tested, and the “Cumulative % of strains inhibited at MIC” value ([1]; MIC 0.125 µg/mL) was 84.6%, the “No. of strains inhibited at MIC” value ([1]; MIC 0.125 µg/mL) was 4 and the “Cumulative % of strains inhibited at MIC” value ([1]; MIC […]) was 100.0%. The “No. of strains inhibited at MIC” value ([1]; MIC […]) was 2, the “Cumulative % of strains inhibited at MIC” value ([1]; MIC ≤[…]) was 53.8% and the “No. of strains inhibited at MIC” value ([1]; MIC ≤[…]) was 7. For the same compound, the “MIC Range” value ([1]; S. pneumoniae, 13 clinical isolates) was ≤0.0625 to 0.25 µg/mL, the MIC50 ([1]; Streptococcus pneumoniae, S. pneumoniae, 13 clinical isolates, read-out: MIC50) was ≤ 0.0625 µg/mL and the MIC90 ([1]; Streptococcus pneumoniae, S. pneumoniae, 13 clinical isolates, read-out: MIC90) was 0.25 µg/mL (≈ 0.414 µM). The “Cumulative % of strains inhibited at MIC” value ([2]; MIC 0.125 µg/mL) was 88.9%, the “No. of strains inhibited at MIC” value ([2]; MIC 0.125 µg/mL) was 3 and the “Cumulative % of strains inhibited at MIC” value ([2]; MIC 2 µg/mL) was 100%. For the same compound, the “No. of strains inhibited at MIC” value ([2]; MIC 2 µg/mL) was 1, the “Cumulative % of strains inhibited at MIC” value ([2]; MIC ≤[…]) was 55.6% and the “No. of strains inhibited at MIC” value ([2]; MIC ≤[…]) was 5. For the same compound, the MIC50 ([2]; Streptococcus suis, S. suis, 9 clinical isolates, read-out: MIC50) was ≤ 0.0625 µg/mL, the MIC90 ([2]; Streptococcus suis, S. suis, 9 clinical isolates, read-out: MIC90) was 0.125 µg/mL (≈ 0.207 µM) and the MIC ([2]; Streptococcus suis, S. suis, 9 clinical isolates, read-out: MIC Range) was 0.0625 to 2 µg/mL (≈ 0.104 to 3.31 µM). For the same compound, the MIC [3] was 0.125 µg/mL (≈ 0.207 µM), the MIC [4] was 0.125 µg/mL (≈ 0.207 µM) and the MIC [5] was ≤ 0.0625 µg/mL. The MIC [6] was ≤ 0.0625 µg/mL, the MIC [7] was ≤ 0.0625 µg/mL and the MIC [8] was 0.25 µg/mL (≈ 0.414 µM). For the same compound, the “Cumulative % of strains inhibited at MIC” value ([9]; MIC 0.125 µg/mL) was 91.7%, the “No. of strains inhibited at MIC” value ([9]; MIC 0.125 µg/mL) was 49 and the “Cumulative % of strains inhibited at MIC” value ([9]; MIC 0.5 µg/mL) was 100.0%. The “No. of strains inhibited at MIC” value ([9]; MIC 0.5 µg/mL) was 1, the “Cumulative % of strains inhibited at MIC” value ([9]; MIC […]) was 98.6% and the “No. of strains inhibited at MIC” value ([9]; MIC […]) was 5. The “Cumulative % of strains inhibited at MIC” value ([9]; MIC ≤[…]) was 23.6%, the “No. of strains inhibited at MIC” value ([9]; MIC ≤[…]) was 17 and the “fold higher activity than comparator agents” value ([9]; E. faecalis clinical isolates) was 2- to 16 fold. The “MIC Range” value ([9]; E. faecalis, 72 clinical isolates) was ≤0.0625 to 0.5 µg/mL, the MIC50 [9, 20] was 0.125 µg/mL (≈ 0.207 µM) and the MIC90 [9, 20] was 0.125 µg/mL (≈ 0.207 µM). It also gave an MIC [10] of 4 µg/mL (≈ 6.63 µM), an MIC [11] of 64 µg/mL (≈ 106 µM) and an MIC [12] of 0.25 µg/mL (≈ 0.414 µM). For the same compound, the MIC [13] was 1 µg/mL (≈ 1.66 µM), the MIC [14] was 0.25 µg/mL (≈ 0.414 µM) and the MIC [15] was 0.5 µg/mL (≈ 0.828 µM). For the same compound, the MIC [16] was 0.031 µg/mL (≈ 0.0514 µM), the “No. of strains inhibited at MIC” value ([17]; S. epidermidis (10), MIC 0.125 µg/mL) was 2 and the “Cumulative % of strains inhibited at MIC” value ([17]; S. epidermidis (10), MIC ≤[…]) was 80.0%. For the same compound, the “No. of strains inhibited at MIC” value ([17]; S. epidermidis (10), MIC ≤[…]) was 8, the MIC50 ([17]; Staphylococcus epidermidis, S. epidermidis, 10 clinical isolates, read-out: MIC50) was ≤ 0.0625 µg/mL and the MIC90 ([17]; Staphylococcus epidermidis, S. epidermidis, 10 clinical isolates, read-out: MIC90) was 0.125 µg/mL (≈ 0.207 µM). The MIC ([17]; Staphylococcus epidermidis, S. epidermidis, 10 clinical isolates, read-out: MIC Range) was 0.0625 to 0.125 µg/mL (≈ 0.104 to 0.207 µM), the “Cumulative % of strains inhibited at MIC” value ([18]; MIC 0.125 µg/mL) was 97.8% and the “No. of strains inhibited at MIC” value ([18]; MIC 0.125 µg/mL) was 3. The “Cumulative % of strains inhibited at MIC” value ([18]; MIC […]) was 100.0%, the “No. of strains inhibited at MIC” value ([18]; MIC […]) was 1 and the “Cumulative % of strains inhibited at MIC” value ([18]; MIC ≤[…]) was 91.3%. For the same compound, the “No. of strains inhibited at MIC” value ([18]; MIC ≤[…]) was 42, the MIC50 ([18]; Staphylococcus aureus, S. aureus, 46 clinical isolates, read-out: MIC50) was ≤ 0.0625 µg/mL and the MIC90 ([18]; Staphylococcus aureus, S. aureus, 46 clinical isolates, read-out: MIC90) was ≤ 0.0625 µg/mL. The MIC ([18]; Staphylococcus aureus, S. aureus, 46 clinical isolates, read-out: MIC Range) was 0.0625 to 0.25 µg/mL (≈ 0.104 to 0.414 µM), the “Cumulative % of strains inhibited at MIC” value [19, 21] was 100.0% and the “No. of strains inhibited at MIC” value [19, 21] was 2. The “No. of strains inhibited at MIC” value ([19]; S. haemolyticus (32), MIC ≤[…]) was 30, the MIC50 ([19]; Staphylococcus haemolyticus, S. haemolyticus, 32 clinical isolates, read-out: MIC50) was ≤ 0.0625 µg/mL and the MIC90 ([19]; Staphylococcus haemolyticus, S. haemolyticus, 32 clinical isolates, read-out: MIC90) was ≤ 0.0625 µg/mL. For the same compound, the MIC ([19]; Staphylococcus haemolyticus, S. haemolyticus, 32 clinical isolates, read-out: MIC Range) was 0.0625 to 0.125 µg/mL (≈ 0.104 to 0.207 µM).
